Data reported in ChEMBL document CHEMBL1201862, “PubChem BioAssay data set” (2004).
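Following 48 hours of exposure in 96-well plates, responses at five concentrations were used to interpolate endpoints linearly. Here, GI50 denotes the concentration required for 50% inhibition of growth.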 Active and inactive are the calls of the source. No stated cut-off is given here; in the data, active = GI50 up to about 1.1 µM and inactive = higher.

Tests used:
Assay in all cases: inhibition of tumour cell growth, NCI panel, 48 h
[1] = tested on: SK-MEL-2
[2] = tested on: ACHN
[3] = tested on: SN12C
[4] = tested on: NCI-H460
[5] = tested on: COLO 205
[6] = tested on: TK-10
[7] = tested on: RPMI-8226
[8] = tested on: LOX IMVI
[9] = tested on: HCC 2998
[10] = tested on: HCT-15
[11] = tested on: UACC-62
[12] = tested on: IGROV-1
[13] = tested on: OVCAR-8
[14] = tested on: PC-3
[15] = tested on: MDA-MB-435
[16] = tested on: A549
[17] = tested on: OVCAR-4
[18] = tested on: SF-539
[19] = tested on: M14
[20] = tested on: MOLT-4
[21] = tested on: Malme-3M
[22] = tested on: CAKI-1
[23] = tested on: CCRF-CEM
[24] = tested on: 786-0
[25] = tested on: MDA-N
[26] = tested on: A498
[27] = tested on: HOP-62
[28] = tested on: UACC-257
[29] = tested on: OVCAR-5
[30] = tested on: HL-60
[31] = tested on: OVCAR-3
[32] = tested on: MCF7
[33] = tested on: EKVX
[34] = tested on: SF-295
[35] = tested on: SK-OV-3
[36] = tested on: NCI/ADR-RES
[37] = tested on: BT-549
[38] = tested on: HOP-92
[39] = tested on: SK-MEL-5
[40] = tested on: HCT-116
[41] = tested on: UO-31
[42] = tested on: NCI-H23
[43] = tested on: K562
[44] = tested on: HT-29
[45] = tested on: Hs-578T
[46] = tested on: SW-620
[47] = tested on: SNB-19
[48] = tested on: MDA-MB-231
[49] = tested on: SR
[50] = tested on: SF-268
[51] = tested on: U-251
[52] = tested on: T47D
[53] = tested on: RXF 393
[54] = tested on: SK-MEL-28
[55] = tested on: SNB-75
[56] = tested on: DU-145
[57] = tested on: KM12
[58] = tested on: NCI-H226
[59] = tested on: NCI-H522

Measured: GI50

O=c1cc(-c2ccccc2)oc2ccc(-c3ccc4oc(-c5ccccc5)cc(=O)c4c3)cc12
inactive: [1] 18.2 µM | [2] 20.5 µM | [3] > 10 µM | [4] 19.6 µM | [5] 17.1 µM | [6] 29.4 µM | [7] 13.5 µM | [8] 17.3 µM | [9] 16 µM | [11] 14.9 µM | [12] 26.9 µM | [13] 16.6 µM | [14] > 10 µM | [15] 17.8 µM | [16] 16.7 µM | [17] 19.3 µM | [18] 15.6 µM | [19] 16.6 µM | [20] 11.2 µM | [21] 20.3 µM | [22] 16.6 µM | [23] 18 µM | [24] 28.4 µM | [25] 15.4 µM | [26] 14.7 µM | [27] 19.1 µM | [28] > 10 µM | [29] 27.6 µM | [30] 10.1 µM | [31] > 10 µM | [32] 18.8 µM | [33] 3.75 µM | [34] 20.8 µM | [35] 44.8 µM | [36] 16.8 µM | [37] > 10 µM | [38] 14.4 µM | [39] 12.9 µM | [40] 15.9 µM | [41] 8.95 µM | [42] 15.7 µM | [43] 14.2 µM | [44] 30.9 µM | [45] 12.2 µM | [46] 30.5 µM | [47] 6.82 µM
15.8 µM: [10]

Cc1cc2c(s1)C(N)CC2=O (centres undefined)
inactive: [48] > 100 µM | [1] > 100 µM | [2] > 100 µM | [3] > 100 µM | [4] > 100 µM | [49] > 100 µM | [50] > 100 µM | [5] > 100 µM | [51] > 100 µM | [52] > 100 µM | [6] > 100 µM | [7] > 100 µM | [9] > 100 µM | [11] > 100 µM | [12] > 100 µM | [13] > 100 µM | [53] > 100 µM | [14] > 100 µM | [15] > 100 µM | [16] > 100 µM | [18] > 100 µM | [19] > 100 µM | [20] > 100 µM | [21] > 100 µM | [54] > 100 µM | [22] > 100 µM | [23] > 100 µM | [24] > 100 µM | [55] > 100 µM | [25] > 100 µM | [26] > 100 µM | [27] > 100 µM | [28] > 100 µM | [29] > 100 µM | [30] > 100 µM | [31] > 100 µM | [32] > 100 µM | [33] > 100 µM | [35] > 100 µM | [36] > 100 µM | [37] > 100 µM | [56] > 100 µM | [39] > 100 µM | [57] > 100 µM | [40] > 100 µM | [41] > 100 µM | [43] > 100 µM | [44] > 100 µM | [46] > 100 µM | [47] > 100 µM
> 100 µM: [10]

CC(C)[Si](CC1=CCCCC12C(=O)N(COCC[Si](C)(C)C)c1ccccc12)(C(C)C)C(C)C (centres undefined)
inactive: [48] > 100 µM | [1] > 100 µM | [58] > 100 µM | [2] > 100 µM | [4] 82.2 µM | [49] > 100 µM | [50] > 100 µM | [5] > 100 µM | [51] > 100 µM | [52] 33.7 µM | [6] > 100 µM | [7] > 100 µM | [8] 29.2 µM | [9] 65.6 µM | [11] > 100 µM | [12] > 100 µM | [13] 89.3 µM | [53] 20.6 µM | [14] > 100 µM | [15] > 100 µM | [16] > 100 µM | [17] > 100 µM | [18] 73.1 µM | [19] > 100 µM | [59] 41.8 µM | [20] > 100 µM | [21] > 100 µM | [54] 92.5 µM | [22] > 100 µM | [24] > 100 µM | [55] > 100 µM | [25] > 100 µM | [26] > 100 µM | [27] > 100 µM | [28] 37.6 µM | [29] 27.2 µM | [31] 39.4 µM | [32] 61 µM | [33] 63.8 µM | [34] 31.1 µM | [35] > 100 µM | [36] > 100 µM | [56] 66.7 µM | [38] 89.3 µM | [39] 43.7 µM | [57] > 100 µM | [41] > 100 µM | [42] 66.8 µM | [43] > 100 µM | [44] 51.6 µM | [45] > 100 µM | [46] > 100 µM | [47] 66.5 µM
active: [23] 0.448 µM
> 100 µM: [10]

CCCCCC(=O)N[C@@H](c1ccco1)[C@@H](O)C(=O)O[C@H]1C[C@@]2(O)[C@@H](OC(=O)c3ccccc3)[C@@H]3[C@]4(OC(C)=O)CO[C@@H]4C[C@H](O)[C@@]3(C)C(=O)[C@H](OC(C)=O)C(=C1C)C2(C)C
inactive: [17] 4.32 µM | [33] > 25 µM | [36] 1.75 µM
active: [2] 0.0406 µM | [4] < 0.0025 µM | [49] < 0.0025 µM | [50] < 0.0025 µM | [5] < 0.0025 µM | [51] < 0.0025 µM | [6] 0.0908 µM | [7] < 0.0025 µM | [9] < 0.0025 µM | [13] < 0.0025 µM | [53] < 0.0025 µM | [15] < 0.0025 µM | [59] < 0.0025 µM | [20] < 0.0025 µM | [23] < 0.0025 µM | [25] < 0.0025 µM | [27] < 0.0025 µM | [32] < 0.0025 µM | [35] < 0.0025 µM | [38] < 0.0025 µM | [39] 0.025 µM | [57] < 0.0025 µM | [40] < 0.0025 µM | [41] 0.0575 µM | [42] < 0.0025 µM | [44] < 0.0025 µM | [45] < 0.0025 µM | [47] < 0.0025 µM
0.0295 µM: [10]

Cc1ccc(/N=N/C(=O)NNc2ccc(C)cc2Br)c(Br)c1
inactive: [48] 26.3 µM | [1] 16.1 µM | [58] 21.3 µM | [2] 26.7 µM | [3] 21.4 µM | [4] 17.3 µM | [49] 14.7 µM | [50] 25.8 µM | [51] 16.1 µM | [52] 17.8 µM | [6] 31.1 µM | [7] 20 µM | [8] 18 µM | [9] 16.4 µM | [11] 10.9 µM | [12] 20.8 µM | [13] 20.5 µM | [14] 11.9 µM | [15] 30.5 µM | [16] 24.4 µM | [17] 37.5 µM | [19] 24.5 µM | [59] 26.1 µM | [20] 10.4 µM | [21] 19.6 µM | [54] 21.4 µM | [22] 24.9 µM | [23] 2.58 µM | [24] 18.4 µM | [55] 40.8 µM | [25] 19.3 µM | [26] 26.9 µM | [27] 19.6 µM | [28] 26.8 µM | [29] 19.4 µM | [30] 18.7 µM | [31] 19.9 µM | [32] 21.8 µM | [37] 27.2 µM | [56] 19.9 µM | [39] 16.9 µM | [40] 10.9 µM | [41] 16 µM | [42] 24.5 µM | [43] 16.4 µM | [44] 40.9 µM | [46] 32.7 µM | [47] 32.5 µM
20 µM: [10]
